Data as given in patent publication US11945807B2, “Splicing modulator antibody-drug conjugates and methods of use” (EISAI R&D MANAGEMENT CO., LTD., priority 2018, dated 2024).
Read-outs that look alike come from different tables or passages of the source.

How the values were obtained:
NCIH1650.1 = experiment: Payload cellular potency CTGlo-ATS 72 h, NCIH1650.1; type: cell-based; conditions: cell line #1, 72 h, corresponding free payload
THP1.1 = experiment: Payload cell potency and lethality CTGlo 72 h, THP1.1; type: cell-based
N87 cells = experiment: Cell viability CellTiter-Glo, N87; type: cell-based, human; conditions: unconjugated payload of the ADC; for GI50: Homo sapiens
Method: (§1) HCC1954 (American Type Culture Collection (ATCC)) breast ductal carcinoma cells were plated at 2000 cells/well in flat bottom 96-well tissue culture plates (Corning) in a total volume of 90 μL tissue culture medium supplemented with 10% fetal bovine serum (ThermoFisher Scientific). Cells were treated with a 3-fold serial dilution of compound from 200 nM to 0.03 nM. Each concentration was tested in triplicate. At the time of treatment, a plate of untreated cells was evaluated using CellTiter-Glo®2.0 Luminescent Cell Viability Assay according to the manufacturers recommendations (Promega; #G9241). CellTiter-Glo® 2.0 reagent was added to the medium, incubated, and assayed on an EnVision Multilabel Reader (PerkinElmer). Values represent time zero (T0). […] Percentage growth inhibition was calculated as: [(T144−T0)/(C−T0)]×100 for concentrations for which T144>/=T0 or [(T144−T0)/T0]×100 for concentrations for which T144<T0. The dose response curve plots were generated using Prism 7 (Graphpad) and fit using nonlinear regression analysis and the log(inhibitor) versus response-variable slope (four parameters).
(§2) HCC1954 (ATCC), 2000 cells/well), N87 (ATCC, 4000 cells/well), SKBR3 (ATCC, 3000 cells/well), and MCF7 (ATCC, 1500 cells/well) cell lines were used.

PC3 cells = experiment: Cell viability CellTiter-Glo, PC3 (EPHA2-expressing); type: cell-based; conditions: for GI50: Homo sapiens, PC-3, free payload of the ADC; for Payload Rmin (%) / Payload LD50: free payload of the ADC
Method: as §1
(§3) Anti-CD138 ADCs were tested in the CD138-expressing MOLP8 multiple myeloma cell line. Similarly, anti-EPHA2 ADCs were tested in the EPHA2-expressing PC3 prostate cancer cell line.

[1] = Caco-2 permeability of ADC payload; type: in vitro ADME; conditions: human; for Papp B→A at 2 h, 10 NM: basolateral to apical, read-out: Permeability Mean Caco-2 B-A Perm (10e−G cm/s)
Method: (§4) Integrity of cell monolayer was confirmed by TEER (transepithelial electrical resistance) and Lucifer yellow. Payloads were spiked in duplicate at 10 NM, separately, on both sides of the cell monolayer. Permeability rates from the apical to basolateral (A-B) direction and the basolateral to apical (B-A) direction were determined by sampling aliquots from both chambers immediately after treatment (t=0) and following incubation for 2 hours. Samples were protein precipitated with organic solvent containing internal standard and analyzed by LC-MS/MS (SCIEX; API 5500). The area ratio responses of payload/internal standard over time in both directions were used to generate permeability (cm/sec) values.

Caco-2 cells = experiment: Caco-2 permeability of ADC payload; type: in vitro ADME
Method: as §4

[2] = Chemical stability of ADC payload, pH 5.5 buffer; type: physicochemical; conditions: for half-life at 20 μM: McIlvaine (citrate-phosphate) buffer, unconjugated payload, Citrate-Phosphate buffer pH 5.5, 37° C., read-out: Stability Mean Stability t1/2 pH5.5 (converted); for pH 5.5 Stability (t1/2, 37 C.): pH 5.5, 37 C., corresponding payload
Excerpt: (Eppendorf ThermoMixer). […] Time 0 was set to 100.

HCC1954 cells = experiment: Cell viability CellTiter-Glo, HCC1954; conditions: for GI50: Homo sapiens, HCC1954, read-out: Payload GI50 (nM)
MCF7 cells = experiment: Cell viability CellTiter-Glo, MCF7 (HER2-negative); type: cell-based; conditions: Homo sapiens, unconjugated payload of the ADC
Method: as §1, §2

NCIH1568.1 = experiment: Payload cellular potency CTGlo-ATS 72 h, NCIH1568.1; type: cell-based; conditions: cell line #2, 72 h, corresponding free payload
MOLP8 cells = experiment: Cell viability CellTiter-Glo, MOLP8 (CD138-expressing); type: cell-based; conditions: for GI50: Homo sapiens, read-out: Payload GI50
Method: as §1, §3

[3] = Caco-2, unconjugated payload, apical to basolateral, 2 hours, read-out: Permeability Mean Caco-2 A-B Perm (10e−6 cm/s)
[4] = Caco-2, unconjugated payload, 2 hours
[5] = unconjugated payload, payload cell potency and lethality
[6] = unconjugated payload of the ADC
[7] = Caco-2, A-B, corresponding payload (Table 26), read-out: Permeability Caco-2 A-B (10e−6 cm/s)
[8] = unconjugated payload of the ADC, HCC1954 cells
[9] = MOLP-8, unconjugated payload of the ADC in the row

Row | SMILES | CTGlo-AT S Mean Min-Response % 72 h THP1.1 (THP1.1; unconjugated payload) [%] | GI50 (N87 cells) [nM] | Payload Rmin (%) (N87 cells) | GI50 (PC3 cells) [nM] | Payload Rmin (%) (PC3 cells) | Papp A→B at 2 h, 10 NM [1, 3] [×10⁻⁶ cm/s] | Papp B→A at 2 h, 10 NM [1, 4] [×10⁻⁶ cm/s] | half-life at 20 μM [2] [h] | GI50 (MCF7 cells) [nM] | GI50 (THP1.1; [5]) [nM] | Papp A→B at 2 h, 10 NM [1, 7] [×10⁻⁶ cm/s] | pH 5.5 Stability (t1/2, 37 C.) [2] | also measured
1 | CC[C@H](O)[C@@H](C)[C@H]1O[C@@H]1C[C@@](C)(O)/C=C/C=C(\C)[C@H]1OC(=O)C[C@H](O)CC[C@@](C)(OC(=O)N2CCNCC2)[C@@H](OC(C)=O)/C=C/[C@@H]1C [D8, (2S,3S,6S,7R,10R,E)-6-acetoxy-10-hydroxy-2-((R,2E,4E)-6-hydroxy-7-((2R,3R)-3-((2R,3S)-3-hydroxypentan-2-yl)oxiran-2-yl)-6-methylhepta-2,4-dien-2-yl)-3,7-dimethyl-12-oxooxacyclododec-4-en-7-yl piperazine-1-carboxylate] | −99.92 | 8.84 | −34.052 | 16.6 | −68.37 | 0.128 | 2.03 | 84.6 | 29.6 |  |  |  | CTGlo-ATS GMean LD50 (nM) 72 h NCIH1650.1 (NCIH1650.1): >10000.00 nM; GI50 (NCIH1650.1; read-out: CTGlo-ATS GMean GI50 (nM) 72 h NCIH1650.1): 19.1 nM; GI50 (THP1.1; read-out: CTGlo-ATS GMean GI50 (nM) 72 h THP1.1, cell line #3, 72 h, corresponding free payload): 8.74 nM; Perm. Mean Caco 2 A-B Perm (10e−6 cm/s) (Caco-2 cells; A-B, corresponding free payload): 0.128 10e−6 cm/s; Perm. Mean Caco 2 B-A Perm (10e−6 cm/s) (Caco-2 cells; B-A, corresponding free payload): 2.027 10e−6 cm/s; GI50 (HCC1954 cells): 2.64 nM; CTGlo-ATS GMean LD50 (nM) 72 h NCIH1568.1 (NCIH1568.1): 68.125 nM; GI50 (NCIH1568.1; read-out: CTGlo-ATS GMean GI50 (nM) 72 h NCIH1568.1): 6.57 nM
2 | CC[C@H](O)[C@@H](C)[C@H]1O[C@@H]1C[C@@](C)(O)/C=C/C=C(\C)[C@H]1OC(=O)C[C@H](O)CC[C@@](C)(O)[C@@H](OC(=O)N2CCN(C3CCCCCC3)CC2)/C=C/[C@@H]1C [D11, E7107] | −100.481 |  |  |  |  | 0.87 | 10.6 | 90 |  |  |  |  | 
3 | CC[C@H](O)[C@@H](C)[C@H]1O[C@@H]1C[C@H](C)/C=C/C=C(\C)[C@H]1OC(=O)C[C@H](O)CC[C@@](C)(OC(=O)N2CCNCC2)[C@@H](OC(C)=O)/C=C/[C@@H]1C [D13] | −99.941 |  |  |  |  | 0.9 | 17.2 | < 24 |  | 0.892 |  |  | 
4 | CC(=O)N1CCC(n2nnc3c(F)cc(/C=C(\C)[C@H]4OC(=O)C[C@H](O)CC[C@H](C)[C@@H](OC(=O)N5CCNCC5)/C=C/[C@@H]4C)cc32)CC1 [D14] | −99.209 | 2.92 | −52.662 | 3.88 | −79.835 | 0.06 | 12.1 | > 168 | 5.29 | 3.584 |  |  | GI50 (MOLP8 cells; MOLP-8, unconjugated payload of the ADC): 1.9 nM; Payload LD50 (MOLP8 cells; [6]): 8.5 nM; Payload Rmin (%) (MOLP8 cells; [6]): −61%
5 | CC(=O)N1CCC(n2nnc3c(F)cc(/C=C(\C)[C@H]4OC(=O)C[C@H](O)CC[C@H](C)[C@@H](OC(=O)N5CCN(C)CC5)/C=C/[C@@H]4C)cc32)CC1 [D15] | −99.595 | 0.41 | −68.045 | 3.88 | −79.835 | 3.43 | 26.9 | > 168 | 0.961 |  | 3.4 | 7 | Payload LD50 (N87 cells): >200 nM; GI50 (HCC1954 cells): 0.358 nM; Payload LD50 (HCC1954 cells; [8]): 2.037 nM; Payload Rmin (%) (HCC1954 cells; [8]): −84.412%; GI50 (MOLP8 cells; [9]): 0.776 nM
6 | C/C(=C\c1cc(F)cc(N2CCN(C(=O)Cn3cccn3)CC2)c1)[C@H]1OC(=O)C[C@H](O)CC[C@H](C)[C@@H](OC(=O)N2CCNCC2)/C=C/[C@@H]1C [D16] | −99.681 |  |  |  |  | 0.72 | 23.3 | > 168 |  | 2.975 | 0.72 | 7 | 
7 | CC[C@H](O)[C@@H](C)[C@H]1O[C@@H]1C[C@H](C)/C=C/C=C(\C)[C@H]1OC(=O)C[C@H](O)CC[C@@](C)(OC)[C@@H](OC(=O)N2CCNCC2)/C=C/[C@@H]1C [D18, (2S,3S,6S,7R,10R,E)-10-hydroxy-2-((S,2E,4E)-7-((2R,3R)-3-((2R,3S)-3-hydroxypentan-2-yl)oxiran-2-yl)-6-methylhepta-2,4-dien-2-yl)-7-methoxy-3,7-dimethyl-12-oxooxacyclododec-4-en-6-yl piperazine-1-carboxylate] | −99.621 | 0.275 | −92.127 |  |  | 1.19 | 27.4 |  | 0.883 | 0.863 |  |  | GI50 (HCC1954 cells): 0.208 nM
8 | CC[C@H](O)[C@@H](C)[C@H]1O[C@@H]1C[C@H](C)/C=C/C=C(\C)[C@H]1OC(=O)C[C@H](O)CC[C@@](C)(OC)[C@@H](OC(=O)N2CCN(C)CC2)/C=C/[C@@H]1C [D19, (2S,3S,6S,7R,10R,E)-10-hydroxy-2-((S,2E,4E)-7-((2R,3R)-3-((2R,3S)-3-hydroxypentan-2-yl)oxiran-2-yl)-6-methylhepta-2,4-dien-2-yl)-7-methoxy-3,7-dimethyl-12-oxooxacyclododec-4-en-6-yl 4-methylpiperazine-1-carboxylate] |  |  |  | 1.41 | −29.33 |  |  |  |  |  | 16 | 0.8 | Payload LD50 (PC3 cells): >400 nM; GI50 (MOLP8 cells; [9]): 0.84 nM
9 | CC[C@H](O)[C@@H](C)[C@H]1O[C@@H]1C[C@@](C)(O)/C=C/C=C(\C)[C@H]1OC(=O)C[C@H](O)CC[C@@](C)(OC)[C@@H](OC(=O)N(C)CCNC)/C=C/[C@@H]1C [D20, (2S,3S,6S,7R,10R,E)-10-hydroxy-2-((R,2E,4E)-6-hydroxy-7-((2R,3R)-3-((2R,3S)-3-hydroxypentan-2-yl)oxiran-2-yl)-6-methylhepta-2,4-dien-2-yl)-7-methoxy-3,7-dimethyl-12-oxooxacyclododec-4-en-6-yl methyl(2-(methylamino)ethyl)carbamate] | −100.664 |  |  |  |  | 0.16 | 0.38 | > 168 |  | 28.336 |  |  | 
10 | CC[C@H](O)[C@@H](C)[C@H]1O[C@@H]1C[C@@](C)(O)/C=C/C=C(\C)[C@H]1OC(=O)C[C@H](O)CC[C@@](C)(OC)[C@@H](OC(=O)N2CCNC(CCC(=O)O)C2)/C=C/[C@@H]1C (stereo partly drawn) [D22, N-ethyl-N-isopropylpropan-3-(4-((((2S,3S,6S,7R,10R,E)-10-hydroxy-2-((R,2E,4E)-6-hydroxy-7-((2R,3R)-3-((2R,3S)-3-hydroxypentan-2-yl)oxiran-2-yl)-6-methylhepta-2,4-dien-2-yl)-7-methoxy-3,7-dimethyl-12-oxooxacyclododec-4-en-6-yl)oxy)carbonyl)piperazin-2-yl)propanoic acid] | −78.119 |  |  |  |  | 0.14 | 0.16 |  |  |  |  |  | 
11 | CC[C@H](O)[C@@H](C)[C@H]1O[C@@H]1C[C@@](C)(O)/C=C/C=C(\C)[C@H]1OC(=O)C[C@H](O)CC[C@@](C)(OC)[C@@H](OC(=O)N2CCN(CCCC(=O)O)CC2)/C=C/[C@@H]1C [D25] | −77.246 | > 200 | 40.364 | > 400 | 77.524 | 0.137 | 0.349 | 120 | > 200 | 348.114 | 0.14 | 3.4 | Payload LD50 (PC3 cells): >400 nM; payload permeability (in words) (Caco-2 cells): poorly permeable; GI50 (HCC1954 cells): 168 nM; GI50 (MOLP8 cells; [9]): 150 nM; Payload LD50 (MOLP8 cells; [6]): >400 nM
12 | C/C(=C\c1cc(F)cc(N2CCN(C(=O)Cn3cccn3)CC2)c1)[C@H]1OC(=O)C[C@H](O)CC[C@H](C)[C@@H](OC(=O)N2CCN(C)CC2)/C=C/[C@@H]1C [D26] | −99.401 |  |  |  |  | 16 | 41.1 | > 168 |  |  |  |  | 
13 | C/C(=C\c1cc(F)cc(N2CCN(CC(=O)O)CC2)c1)[C@H]1OC(=O)C[C@H](O)CC[C@H](C)[C@@H](OC(=O)N2CCNCC2)/C=C/[C@@H]1C [D33, 2-(4-(3-fluoro-5-((E)-2-((2S,3S,6R,7S,10R,E)-10-hydroxy-3,7-dimethyl-12-oxo-6-((piperazine-1-carbonyl)oxy)oxacyclododec-4-en-2-yl)prop-1-en-1-yl)phenyl)piperazin-1-yl)acetic acid] | −53.128 |  |  |  |  | 0.13 | 0.53 |  |  | 195.752 |  |  | 
14 | C/C(=C\c1cccc(S(=O)(=O)N2CCCC2)c1)[C@H]1OC(=O)C[C@H](O)CC[C@H](C)[C@@H](OC(=O)N2CCN(C)CC2)/C=C/[C@@H]1C [D34] |  |  |  |  |  |  |  |  |  |  | 26 | 7 | 
